Experimental data as given in ChEMBL document CHEMBL3856217, “A series of pyrido[2,3-b]pyrazin-3(4H)-one derivatives as aldose reductase inhibitors with antioxidant activity” (Eur J Med Chem, 2016).

How the values were obtained:
[1] = Inhibition of rat lens ALR2 using D,L-glyceraldehyde as substrate preincubated for 10 mins followed by substrate addition measured for 5 mins
[2] = Antioxidant activity assessed as DPPH free radical scavenging activity at 100 uM after 30 mins by UV-spectrophotometric method relative to control; type: functional
[3] = Antioxidant activity assessed as DPPH free radical scavenging activity at 50 uM after 30 mins by UV-spectrophotometric method relative to control; type: functional
[4] = Antioxidant activity assessed as DPPH free radical scavenging activity at 10 uM after 30 mins by UV-spectrophotometric method relative to control; type: functional

SMILES | IC50 [1] [nM] | Activity [2] [%] | Activity [3] [%] | Activity [4] [%]
COc1c(O)cc(-c2nc3cccnc3n(CC(=O)O)c2=O)cc1O | 319 | 45.6 | – | –
COc1cc(-c2nc3cccnc3n(CC(=O)O)c2=O)cc(O)c1OC | 578 | 20.5 | – | –
COc1cc(O)cc(-c2nc3cccnc3n(CC(=O)O)c2=O)c1 | 5210 | – | – | –
O=C(O)Cn1c(=O)c(-c2cc(O)cc(O)c2)nc2cccnc21 | 296 | 30.3 | – | –
O=C(O)Cn1c(=O)c(/C=C/c2ccc(O)cc2)nc2cc(Cl)cnc21 | 13 | 66.2 | 47.5 | –
O=C(O)Cn1c(=O)c(/C=C/c2ccc(O)c(O)c2)nc2cccnc21 | 165 | 89.1 | 78.4 | 55.1
O=C(O)Cn1c(=O)c(/C=C/c2ccc(O)cc2)nc2cc(Br)cnc21 | 29 | 61.2 | 43.8 | –
O=C(O)Cn1c(=O)c(-c2ccc(O)cc2O)nc2cc(Cl)cnc21 | 9 | 41.5 | – | –
COc1cc(CCc2nc3cccnc3n(CC(=O)O)c2=O)ccc1O | 689 | 40.1 | 25.8 | –
O=C(O)Cn1c(=O)c(/C=C/c2ccc(O)cc2)nc2cccnc21 | 35 | 57.6 | 44.5 | –
O=C(O)Cn1c(=O)c(-c2ccccc2)nc2cccnc21 | 9940 | – | – | –
COc1cc(/C=C/c2nc3cc(Br)cnc3n(CC(=O)O)c2=O)ccc1O | 389 | 90.1 | 75.4 | 59.6
O=C(O)Cn1c(=O)c(/C=C/c2ccccc2)nc2cccnc21 | 895 | 78.9 | 64.1 | 35.5
O=C(O)Cn1c(=O)c(CCc2ccc(O)cc2)nc2cccnc21 | 918 | 35.2 | – | –
O=C(O)Cn1c(=O)c(-c2c(O)cc(O)cc2O)nc2cccnc21 | 68 | 83.5 | 70.9 | 40.2
O=C(O)Cn1c(=O)c(-c2ccc(O)c(O)c2)nc2cccnc21 | 831 | 50.5 | – | –
O=C(O)Cn1c(=O)c(/C=C/c2ccc(O)c(O)c2)nc2cc(Cl)cnc21 | 36 | 97.1 | 87.4 | 74.7
COc1ccc(/C=C/c2nc3cccnc3n(CC(=O)O)c2=O)cc1 | 1520 | 52.8 | 39.1 | –
O=C(O)Cn1c(=O)c(-c2ccc(O)cc2O)nc2cc(Br)cnc21 | 24 | 43.5 | – | –
COc1ccc(-c2nc3cccnc3n(CC(=O)O)c2=O)cc1O | 2210 | 32.1 | – | –
COc1cc(/C=C/c2nc3cccnc3n(CC(=O)O)c2=O)ccc1O | 307 | 85.5 | 75.6 | 48.6
O=C(O)Cn1c(=O)c(-c2ccc(O)cc2)nc2cccnc21 | 1030 | 6.5 | – | –
O=C(O)Cn1c(=O)c(/C=C/c2ccc(F)cc2)nc2cccnc21 | 126 | 42.7 | – | –
O=C(O)Cn1c(=O)c(-c2cc(O)c(O)c(O)c2)nc2cccnc21 | 179 | 70.7 | 62.4 | 34.6
Cc1c(C)c2c(c(C)c1O)CCC(C)(C(=O)O)O2 (configuration not stated) | – | 96.2 | 89.6 | 78.2
O=C(O)Cn1c(=O)c(-c2c(O)cc(O)cc2O)nc2cc(Cl)cnc21 | 18 | 85.2 | 69.8 | 41.3
COc1cc(/C=C/c2nc3cc(Cl)cnc3n(CC(=O)O)c2=O)ccc1O | 87 | 94.9 | 81.8 | 62.3
O=C(O)Cn1c(=O)c(-c2ccc(O)cc2O)nc2cccnc21 | 185 | 37.7 | – | –
O=C(O)Cn1c(=O)c(/C=C/c2ccc(O)c(O)c2)nc2cc(Br)cnc21 | 108 | 95.8 | 82.4 | 70.8
